Experimental data published in US7696362B2, “Derivatives of artemisinin, and their uses in the treatment of malaria” (Centre National de la Recherche Scientifique, priority 2001, dated 2010).
pIC50: −log10 of the molar value.

Tests used:
Solubility in water = format: physicochemical; conditions: hydrochloride
[1] = system: sensitive strains of P. falciparum; experiment: IC50 vis-à-vis sensitive strains of P. falciparum; format: cell-based; conditions: Plasmodium falciparum
[2] = system: resistant (W2) strains of P. falciparum; experiment: IC50 vis-à-vis resistant (W2) strains of P. falciparum; format: cell-based; conditions: Plasmodium falciparum
Plasmodium berghei = experiment: Peters test on mice infected by Plasmodium berghei; format: in vivo; conditions: after 20 days; daily dose of 50 mg/Kg for 4 days

| Structure (SMILES) | solubility (Solubility in water) | pIC50 [1] | pIC50 [2] | survival of mice in the Peters test (Plasmodium berghei) |
| --- | --- | --- | --- | --- |
| C[C@@H]1CC[C@H]2C(CN3CCOCC3)=C(C(F)(F)F)O[C@@H]3OC4(C)CC[C@@H]1[C@]32OO4 | > 20 mg/mL |  |  |  |
| C[C@@H]1CC[C@H]2C(CN3CCN(CCO)CC3)=C(C(F)(F)F)O[C@@H]3OC4(C)CC[C@@H]1[C@]32OO4 |  | 7.77 | 8.52 | all the mice survive |
| C[C@@H]1CC[C@H]2C(CN3CCN(CCO)CC3)=C(C(F)(F)F)O[C@@H]3OC4(C)CC[C@@H]1[C@]32OO4 [drawing 28] | > 50 mg/mL |  |  |  |
